Here are results for 41 molecules from patent publication US9073892B2, “Indazolyl triazol derivatives” (Merck Serono S.A., priority 2010, dated 2015).

For test [1], the system named is T1, IRAK1/4 human.
T1 construct: fused on or other part: His tag and TEV cleavage site at the N-terminus
The test is described as follows: IRAK1/4 phosphorylation IC50 (enzymatic assay, table 2). In kind it is biochemical. The settings on record: human IRAK1/4 phosphorylation. An outline of the steps: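 Inhibition values are IC50s. They come from 384-well reactions in which His-TEV-tagged human IRAK-1 or IRAK-4 (the latter with STK1-biotin peptide) met ATP and compounds in DMSO at 20 µM to 1 nM. The buffer was 50 mM Hepes pH7.0 containing MgCl2, DTT, EGTA and BSA, and incubation lasted 2 or 3 hours.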

In test [2] the test system is IL1β-induced IL8 release in THP1 cells. The test is described as follows: IRAK IL8 secretion functional assay. In kind it is cell-based. The settings on record: Homo sapiens; THP-1 cells, IL1β 100 ng/ml overnight, IL8 by HTRF; read-out: IC50, Secretion THP-1/IL-β induced IL8 release. An excerpt:
IRAK IL8 Secretion Functional Assay:
THP1 cells are human monocytes derived from acute monocytic leukemia. IL1β receptor expressed on the surface membrane of THP1 cells induced IL8 release. IRAKs are kinase signaling downstream of TLRs and TNF, IL-18, IL-33 and IL-1 receptors.
In cells, IRAK4 is upstream of IRAK1.
The Human IL8 Kit, provided by CysBio International based in Bagnols/Cèze FR, allows for the quantitative determination of IL-8 in cell-culture supernatants.
Anti-cytokine IL8 antibodies are respectively labeled with europium Cryptate and XL665. Upon their binding to IL-8 molecules, the two antibodies come into close proximity, allowing FRET (Fluorescence Resonance Energy Transfer) to occur. This FRET increases proportionally to IL-8 concentrations and be converted in IL8 pg amounts.
THP-1 cells are seeded on Day 1 in 384 well plate with RPMI 1640 at a density of 30 000 cells/well. Compounds 4×/2% DMSO (range of concentrations from 20 μM to 1 nM) and IL1β 4× at 100 ng/ml final are added to cells overnight at 37° C., 5% CO2. Measurement of IL-8 secretion is done by mixing on Day2 10 μl of supernatant with 10 μl of a mix solution of europium Cryptate and XL665 (v:v) as described by supplier.
HTRF (homogeneous time resolved fluorescence) signal is measured after 3 hours incubation time at 30° C. with a BMG Pherastar reader or equivalent.
(TR-FRET usually uses a lanthanide donor and a delayed reading to cut background.)

Molecules are shown by their SMILES.

For `CCN1CCC[C@@H]1CNC(=O)c1ccc(-n2cc(-c3n[nH]c4ccc(C)cc34)nn2)cc1` [Example 3, N-{[(2R)-1-ethylpyrrolidin-2-yl]methyl}-4-[4-(5-methyl-1H-indazol-3-yl)-1H-1,2,3-triazol-1-yl]benzamide], the IC50 in test [1] and in test [2] was 0.1 to 1 µM in each case.
As to `CCN1CCC[C@H]1CNC(=O)c1ccc(-n2cc(-c3n[nH]c4ccc(C)cc34)nn2)cc1` [Example 4, N-{[(2S)-1-ethylpyrrolidin-2-yl]methyl}-4-[4-(5-methyl-1H-indazol-3-yl)-1H-1,2,3-triazol-1-yl]benzamide], the IC50 in test [1] and in test [2] was 0.1 to 1 µM throughout.
As for `Cc1ccc2[nH]nc(-c3cn(-c4ccc(CN5CCCC5)cc4)nn3)c2c1` [Example 6, 5-methyl-3-{1-[4-(pyrrolidin-1-ylmethyl)phenyl]-1H-1,2,3-triazol-4-yl}-1H-indazole], the IC50 in test [1] and in test [2] was 0.1 to 1 µM in each case.
Regarding `CNCc1ccc(-n2cc(-c3n[nH]c4ccc(C)cc34)nn2)cc1` [Example 8, N-methyl-1-{4-[4-(5-methyl-1H-indazol-3-yl)-1H-1,2,3-triazol-1-yl]phenyl}methanamine], the IC50 in test [1] and in test [2] was 0.1 to 1 µM in each case.
As to `Cc1ccc2[nH]nc(-c3cn(-c4ccc(CN5CCN(C)CC5)cc4)nn3)c2c1` [Example 9, 5-methyl-3-(1-{4-[(4-methylpiperazin-1-yl)methyl]phenyl}-1H-1,2,3-triazol-4-yl)-1H-indazole], the IC50 in test [1] was 1 to 5 µM; in test [2], 0.1 to 1 µM.
Taken in the same sequence, the figures for `Cc1ccc2[nH]nc(-c3cn(-c4ccc(CN(C)C)cc4)nn3)c2c1` [Example 10, N,N-dimethyl-1-{4-[4-(5-methyl-1H-indazol-3-yl)-1H-1,2,3-triazol-1-yl]phenyl}methanamine] were 0.1 to 1 µM and 0.1 to 1 µM.
The matching figures for `Cc1ccc2[nH]nc(-c3cn(-c4ccc(CN5CCNCC5)cc4)nn3)c2c1` [Example 11, 5-methyl-3-{1-[4-(piperazin-1-ylmethyl)phenyl]-1H-1,2,3-triazol-4-yl}-1H-indazole]: 0.1 to 1 µM and 0.1 to 1 µM.
As for `O=C(NCc1ccc(-n2cc(-c3n[nH]c4ccccc34)nn2)cc1)c1ccncc1` [Example 15, N-{4-[4(1H-indazol-3-yl]-1H-1,2,3-triazol-1-yl)benzyl}isonicotinamide], the IC50 in test [1] was 1 to 5 µM; in test [2], 0.1 to 1 µM.
`O=C(Cc1ccc(-n2cc(-c3n[nH]c4ccccc34)nn2)cc1)N1CCCC1` [Example 19, 3-{1-[4-(2-oxo-2-pyrrolidin-1-ylethyl)phenyl]-1H-1,2,3-triazol-4-yl}-1H-indazole]: the IC50 in test [1] and in test [2] was 0.1 to 1 µM each time.
For `O=C(CCc1ccc(-n2cc(-c3n[nH]c4ccccc34)nn2)cc1)N1CCOCC1` [Example 22, 3-{1-[4-(3-morpholin-4-yl-3-oxopropyl)phenyl]-1H-1,2,3-triazol-4-yl}-1H-indazole], the IC50 in test [1] lay within 1 to 5 µM; in test [2] it was 0.1 to 1 µM.
The matching figures for `O=C(CCc1ccc(-n2cc(-c3n[nH]c4ccccc34)nn2)cc1)N1CCCC1` [Example 23, 3-{1-[4-(3-oxo-3-pyrrolidin-1-ylpropyl)phenyl]-1H-1,2,3-triazol-4-yl}-1H-indazole]: 1 to 5 µM and 0.1 to 1 µM.
Taken in the same sequence, the figures for `COc1cc(-n2cc(-c3n[nH]c4ccccc34)nn2)ccc1C(=O)N(C)C` [Example 25, 4-[4-(1H-indazol-3-yl)-1H-1,2,3-triazol-1-yl]-2-methoxy-N,N-dimethylbenzamide] were 0.1 to 1 µM and 0.1 to 1 µM.
As for `O=C(c1ccc(-n2cc(-c3n[nH]c4ccccc34)nn2)cc1)N1CCC(O)C1` (stereo not drawn) [Example 26, 1-{4-[4-(1H-indazol-3-yl)-1H-1,2,3-triazol-1-yl]benzoyl}pyrrolidin-3-ol], the IC50 in test [1] and in test [2] was 0.1 to 1 µM each time.
Turning to `CN(C)C1CCN(C(=O)c2ccc(-n3cc(-c4n[nH]c5ccccc45)nn3)cc2)C1` (stereo not drawn) [Example 27, 1-{4-[4-(1H-indazol-3-yl)-1H-1,2,3-triazol-1-yl]benzoyl}-N,N-dimethylpyrrolidin-3-amine], the IC50 in test [1] and in test [2] was 0.1 to 1 µM in each case.
As for `O=C(c1ccc(-n2cc(-c3n[nH]c4ccccc34)nn2)cc1)N1CCC(CO)CC1` [Example 28, (1-{4-[4-(1H-indazol-3-yl)-1H-1,2,3-triazol-1-yl]benzoyl}piperidin-4-yl)methanol], the IC50 in test [1] and in test [2] was 0.1 to 1 µM throughout.
As to `CN(C)CC1CCCN(C(=O)c2ccc(-n3cc(-c4n[nH]c5ccccc45)nn3)cc2)C1` (stereo not drawn) [Example 29, 1-(1-{4-[4-(1H-indazol-3-yl)-1H-1,2,3-triazol-1-yl]benzoyl}piperidin-3-yl)-N,N-dimethylmethanamine], the IC50 in test [1] and in test [2] was 0.1 to 1 µM throughout.
Take `CN1[C@@H]2CCC[C@H]1C[C@H](c1ccc(-n3cc(-c4n[nH]c5cc(F)ccc45)nn3)cc1)C2` [Example 272]: the IC50 in test [1] was under 0.1 µM.
For the molecule `CN1[C@@H]2CCC[C@H]1C[C@H](c1ccc(-n3cc(-c4n[nH]c5ccccc45)nn3)cc1)C2` [Example 273], the IC50 in test [1] is under 0.1 µM.
`Cc1ccc2c(-c3cn(-c4ccc([C@@H]5C[C@H]6CCC[C@@H](C5)N6C)cc4)nn3)n[nH]c2c1` [Example 274] showed an IC50 in test [1] of under 0.1 µM.
As to `CC1(C)CNCCC1c1ccc(-n2cc(-c3n[nH]c4cc(F)ccc34)nn2)cc1` (stereo not drawn) [Example 275], the IC50 in test [1] is under 0.1 µM.
Same read-out and setting: the result for `O=C1C[C@@H](OCc2ccc3[nH]nc(-c4cn(-c5ccc(C(=O)N6CCOCC6)cc5)nn4)c3c2)CO1` [Example 276] reads 0.1 to 1 µM.
Same read-out and setting: the result for `CC1(C)CNCCC1c1ccc(-n2cc(-c3n[nH]c4ccccc34)nn2)cc1` (stereo not drawn) [Example 277] reads under 0.1 µM; that for `CN1C2CCC1CC(n1cc(-n3cc(-c4n[nH]c5ccc(-c6cnn(C)c6)cc45)nn3)cn1)C2` (stereo not drawn) [Example 278], under 0.1 µM.
On the same count and under the same terms, the result for `Cc1ccc2c(-c3cn(-c4ccc(CN5CCOC(C)(C)C5)cc4)nn3)n[nH]c2c1` [Example 279] reads 0.1 to 1 µM; that for `OC(CN1[C@@H]2CC[C@H]1C[C@@H](c1ccc(-n3cc(-c4n[nH]c5ccccc45)nn3)cc1)C2)C(F)(F)F` (stereo partly drawn) [Example 280], 0.1 to 1 µM; that for `OC(CN1[C@@H]2CC[C@H]1C[C@H](c1ccc(-n3cc(-c4n[nH]c5ccccc45)nn3)cc1)C2)C(F)(F)F` (stereo partly drawn) [Example 281], 0.1 to 1 µM.
As for `Fc1ccc2c(-c3cn(-c4ccc(CN5CC6CCC(C5)O6)cc4)nn3)n[nH]c2c1` [Example 282], the IC50 in test [1] was 1 to 5 µM.
Still for that read-out and setting: the value for `CC1(C)CN(Cc2ccc(-n3cc(-c4n[nH]c5cc(F)ccc45)nn3)cc2)CCO1` [Example 283] was 1 to 5 µM.
Take `c1ccc2c(-c3cn(-c4ccc(CN5CC6CCC(C5)O6)cc4)nn3)n[nH]c2c1` [Example 284]: the IC50 in test [1] lay within 1 to 5 µM.
Turning to `Fc1ccc2c(-c3cn(-c4ccc(CN5CCCCC56COC6)cc4)nn3)n[nH]c2c1` [Example 285], the IC50 in test [1] fell in the range of 0.1 to 1 µM.
In the case of `Cc1ccc2c(-c3cn(-c4ccc(CN5CCCCC56COC6)cc4)nn3)n[nH]c2c1` [Example 287], the IC50 in test [1] is 0.1 to 1 µM.
Molecule `Cc1nn(C)cc1-c1ccc(-n2cc(-c3n[nH]c4ccccc34)nn2)cc1` [Example 289] registered an IC50 in test [1] of 0.1 to 1 µM.
In the case of `Cc1cnccc1-c1ccc(-n2cc(-c3n[nH]c4ccccc34)nn2)cc1` [Example 290], the IC50 in test [1] is 0.1 to 1 µM.
Same read-out and setting: the result for `CC(=O)Nc1ccc(-c2ccc(-n3cc(-c4n[nH]c5ccccc45)nn3)cc2)cn1` [Example 291] reads 0.1 to 1 µM.
On the same count and under the same terms, the result for `O=C(c1ccc(-n2cc(-c3n[nH]c4ccc(CN5CC(O)C5)cc34)nn2)cc1)N1CCOCC1` [Example 292] reads 0.1 to 1 µM.
The same measure, in the same setting: the value for `Cc1ccc2c(-c3cn(-c4ccc(CN5CC6CCC(C5)O6)cc4)nn3)n[nH]c2c1` [Example 293] was 0.1 to 1 µM; that for `c1ccc2c(-c3cn(-c4ccc(-c5cnn(C6CCNCC6)c5)cc4)nn3)n[nH]c2c1` [Example 294] was 0.1 to 1 µM.
`O=C(c1ccc(-n2cc(-c3n[nH]c4ccc(CNCc5cccc(O)c5)cc34)nn2)cc1)N1CCOCC1` [Example 295] came in with an IC50 in test [1] of 0.1 to 1 µM.
On the same count and under the same terms, the value for `O=C(c1ccc(-n2cc(-c3n[nH]c4cc(C(F)(F)F)ccc34)nn2)cc1)N1CCOCC1` [Example 296] was 0.1 to 1 µM.
For `FC(F)(F)c1ccc2c(-c3cn(-c4ccc(CN5CCOCC5)cc4)nn3)n[nH]c2c1` [Example 297], the IC50 in test [1] was 1 to 5 µM.
Same read-out and setting: the result for `FC(F)(F)c1ccc2c(-c3cn(-c4ccc(C5CCNCC5)cc4)nn3)n[nH]c2c1` [Example 299] reads 0.1 to 1 µM.
